# Measured values published in patent US20250312320A1, “METHOD AND TREATMENT FOR OSTEOARTHRITIS AND DISEASES OF CHONDROCYTE HYPERTROPHY” (The Royal Veterinary College, priority 2022, published 2025).
# Entries after “also recorded” stand apart in the source; their conditions may differ.
# Assays:
# [1] = system: ihMSC (TERT immortalised human mesenchymal stromal cell line); assay: ihMSC micromasses in chondrogenesis and IL1β OA disease degradation model; assay type: cell-based; details: 100 nM
# Method: (§1) Additional experiments were carried out on primary chondrocytes (equine, canine and human) and ihMSC (TERT immortalised human mesenchymal stromal cell line) to investigate whether CDK8i protects from IL-1β induced degradation when added throughout the entirety of differentiation/IL-1β treatment. Briefly, ihMSCs were seeded at a density of 5×10^4 cells per 10 μl micromass and differentiated in ihMSC chondrogenic media (1% FBS, 1% Ab/Am, 1× Insulin-Transferrin-Selenium premix, 10 μM Y-27632, 100 nM dexamethasone, 50 μg/ml ascorbic acid, 20 ng/ml TGF-β3 (Peprotech)). Primary chondrocytes were seeded at 2.7×10^5 cells per 10 μl micromass and differentiated in primary chondrocyte differentiation media. All micromasses were differentiated for 12 days in the presence of 100 nM […] or DMSO. Some micromasses were processed for gene expression analysis/alcian blue staining on day 12, whilst others were treated with IL-β media (1% FBS, 1% Ab/Am, 10 ng/ml IL-1B) and CDK8i for 48-hours before processing for alcian blue staining/gene expression analysis on day 14 as previously described.
# [2] = system: STR/Ort mouse tibial subchondral bone; assay: STR/Ort mouse 12 week study: microCT of subchondral bone; assay type: in vivo; details: 5 mg/kg oral intermittently, 12 weeks, N=3/group
# Method: Following the pilot study, a larger in vivo study using the STR/Ort OA mouse model was conducted. […]
# On week 12 mice were sacrificed and hind limbs were fixed in 4% PFA for 48 hours before storing in 70% EtOH. Micro computed tomography (μCT) scans were carried out on hind limbs to analyse MSC2530818 effects on bone. Samples were wrapped in plastic film before scanning to prevent drying and scanned using the Skyscan 1172F (Bruker). Whole limbs were scanned with X-ray settings 50 kV and 200 μA, using an aluminum 0.5 mm filter, 960 ms exposure time and 5 μm pixel size. Scanned images were reconstructed into tomograms using NRecon 1.7.3.1 (Bruker) using a reconstruction threshold with a minimum value of −1000 and maximum value of 9486 in Hounsfield units and repositioned using Dataviewer 1.5.4 (Bruker). Tibial subchondral bone regions were manually segmented and analysed using CTAn 1.18.4 (Bruker).
# [3] = system: primary equine articular chondrocytes; assay: Primary equine articular chondrocytes in chondrogenesis and IL1β OA disease model: gene expression; assay type: cell-based; details: 100 nM, N=2
# Method: Articular cartilage was isolated, placed into a petri dish containing phosphate buffer saline (PBS) supplemented with 2% Ab/Am (PBS-Ab/Am) and transferred to a laminar flow hood for processing. Cartilage shavings were minced using a sterile scalpel to approximately 1 mm^3 and washed in fresh PBS-Ab/Am by centrifugation at 500×g for 10 minutes. Supernatant was removed and the cartilage pellet resuspended in 5 ml TrypLE™ (Gibco) before incubation at 37° C. for 10 minutes with gentle agitation. Dissociated cartilage fragments were pelleted and washed to remove excess TrypLE and resuspended in DMEM-complete media (DMEM/F12 (Gibco), 1% Ab/Am, 10% FBS) supplemented with 2 mg/ml Collagenase Type II and incubated overnight at 37° C. with gentle agitation. The cartilage digest was pelleted, washed and subsequently resuspended in DMEM-complete. Released cells were counted using a haematocytometer and seeded at 10,000 cells per cm^2. The cultures were incubated at 37° C., 5% CO2 in a humidified incubator for 2 days before refreshing DMEM-complete every 2 days until confluency. For differentiation experiments, primary chondrocytes were differentiated in DMEM/F12 containing 2% FBS, 1% Ab/Am, 1× Insulin-Transferrin-Selenium premix, 10 ng/ml TGFβ3 (primary chondrocyte differentiation media).
# as §1
# ATDC5 micromasses = assay: Epigenetic library screen on miniaturised ATDC5 micromasses (alcian blue / alizarin red); assay type: cell-based, mouse
# From the text: An epigenetic library consisting of 226 known epigenetic modulator compounds was used to screen against ATDC5 high density micromass cultures to identify any compounds that have an inhibitory effect on matrix mineralisation (catabolic chondrocyte) whilst maintaining and/or promoting healthy extracellular matrix deposition (anabolic chondrocyte). The opposite may be used for identifying molecules that accelerate endochondral ossification for fracture repair i.e. promotes matrix mineralisation.
# In the developed screening method, 5.4×10^4 cells in a total volume of 2 μl standard growth media (DMEM-F12, 5% FBS, 1% Ab/Am 10 μg/ml human transferrin, 3×10^−8 M sodium selenite) were seeded onto single wells of a 96-well plate and incubated at 37° C., 5% CO2 in a humidified incubator for 2 hours to allow for cell adherence. 100 μl of differentiation media DMEM-F12, 5% FBS, 1% Ab/Am, 5 μg/ml human transferrin, 1×ITS) containing a single compound was added to each well.
# Plates were seeded in duplicate to allow for observation each compound has on glycosaminoglycan and mineral deposition at the end of the culture. This enabled for one 96-well plate to screen up to 96 compounds individually. Multiple plates were set up at the same time allowing the entire library to be screened in parallel. […]
# On day 14, culture plates were fixed with 95% ice-cold methanol for 25 minutes and each compound treated well stained with either 1% alcian blue pH 2.5, a stain for glycosaminoglycans indicative of healthy ECM or 1% alizarin red pH 4.2, a stain for mineralisation (calcium) indicative of chondrocyte hypertrophy observed in cartilage disease. Alcian blue stained wells were leached with 8M guanidine hydrochloride and alizarin red leached with 10% cetylpyridinium chloride to quantify staining by absorbance 650 nm and 570 nm, respectively. Leached stain absorbances were plotted on GraphPad Prism for each compound for both alizarin red and alcian blue. To identify hits, the alcian blue:alizarin red ratio was plotted and readings higher than the control group ratios were classified as hits. […]
# [4] = compound present 14 days, compared to negative control BI1374 and DMSO
smiles,measurement,setting,value
Cc1n[nH]c2ncc(C(=O)N3CCC[C@H]3c3ccc(Cl)cc3)cc12 [MSC2530818],"ADAMTS5 gene expression, reduction vs DMSO",[1],1.3 fold
same,"ACAN gene expression, increase vs DMSO",[1]; OA disease model (+IL1β),1.6 fold
same,"MATN3 gene expression, increase vs DMSO",[1]; OA disease model (+IL1β),3 fold
same,glycosaminoglycan (GAG; alcian blue stain) intensity vs DMSO,[1]; both conditions (−IL1β and +IL1β),increase
same,"ACAN gene expression, increase vs DMSO",[1]; chondrogenic (−IL1β),3 fold
same,"MATN3 gene expression, increase vs DMSO",[1]; chondrogenic (−IL1β),4 fold
same,subchondral bone surface area vs DMSO,[2],did not observe an alteration; also recorded: no difference
same,subchondral bone surface density vs DMSO,[2],did not observe an alteration; also recorded: no difference
same,subchondral bone volume/total volume (BV/TV) vs DMSO,[2],did not observe an alteration; also recorded: no difference
same,"ADAMTS5 gene expression, reduction vs DMSO",[3]; OA disease model (+IL1β),2.7 fold
same,"CNMD gene expression, increase vs DMSO",[3]; OA disease model (+IL1β),70 fold
same,"COL2A1 gene expression, increase vs DMSO",[3]; OA disease model (+IL1β),11 fold
same,"SMOC2 gene expression, increase vs DMSO",[3]; OA disease model (+IL1β),3 fold
same,"ACAN gene expression, increase vs DMSO","[3]; OA disease model (+IL1β), ns",1.8 fold
same,MATN3 gene expression vs DMSO,"[3]; OA disease model (+IL1β), ns",2 fold
same,"TIMP4 gene expression, increase vs DMSO","[3]; OA disease model (+IL1β), ns",1.14 fold
same,"CNMD gene expression, increase vs DMSO",[3]; chondrogenic (−IL1β),41 fold
same,"SMOC2 gene expression, increase vs DMSO",[3]; chondrogenic (−IL1β),2.3 fold
same,TIMP4 gene expression vs DMSO,[3]; chondrogenic (−IL1β),no change
same,"ACAN gene expression, increase vs DMSO","[3]; chondrogenic (−IL1β), ns",2 fold
same,"COL2A1 gene expression, decrease vs DMSO","[3]; chondrogenic (−IL1β), ns",1.25 fold
same,MATN3 gene expression vs DMSO,"[3]; chondrogenic (−IL1β), ns",2 fold
CN(C)C(=O)Cn1cc(-c2ccc(-c3cncc4ccccc34)cc2)cn1 [BI1347],glycosaminoglycan (GAG) deposition (alcian blue),ATDC5 micromasses; [4],promotes glycosaminoglycan (GAG) deposition
same,mineralisation (alizarin red),ATDC5 micromasses; [4],reduces mineralisation
same,alcian blue:alizarin red absorbance ratio (hit identification),ATDC5 micromasses; vs window of DMSO control ratios,modulator of endochondral ossification
